According to patent US9708314B2, “Heterocyclic amide compound” (NISSAN CHEMICAL INDUSTRIES, LTD., priority 2013, dated 2017):

What was measured:
Format in all cases: in vivo
[1] = tested on: transplanted Oryza sativa; test: Test Example 1: effect on crop, application before weed generation in submerged conditions; conditions: Application herbicide amount 320 g/ha; Seventeenth Table
In short: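 Rating, on a six-step scale from almost no effect (0) to almost completely withered (5), was made three weeks after pre-emergence treatment. Treatment was surface application to flooded pots at g/ha rates, with plants kept at 25° C. to 30° C.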

Abutilon theophrasti = test: Test Example 4: herbicidal effect by application to foliage (diluvial soil, plastic box); conditions: application to foliage, application herbicide amount 320 g/ha
In short: (§1)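 Emulsion-formulated compound, diluted to a predetermined g/ha dose, applied by small sprayer to leaves and stems of 14-day-old seedlings grown in sterilized diluvial soil. Effect rated on 0–5 herbicidal-ratio scale three weeks on.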

Alopecurus myosuroides = test: as above; conditions: application to foliage, application herbicide amount 320 g/ha
In short: as §1

Amaranthus retroflexus = test: as above; conditions: application to foliage, application herbicide amount 320 g/ha
In short: as §1

Apera spica-venti. = test: as above; conditions: application to foliage, application herbicide amount 320 g/ha
In short: as §1

Avena fatua = test: as above; conditions: application to foliage, application herbicide amount 320 g/ha
In short: as §1

Chenopodium album = test: as above; conditions: application to foliage, application herbicide amount 320 g/ha
In short: as §1

Digitaria ciliaris = test: as above; conditions: application to foliage, application herbicide amount 320 g/ha
In short: as §1

[2] = tested on: Echinochloa crus-galli var. crus-galli; test: as above; conditions: application to foliage, application herbicide amount 320 g/ha
In short: as §1

Galium spurium = test: as above; conditions: application to foliage, application herbicide amount 320 g/ha
In short: as §1

Lolium multiflorum Lam. = test: as above; conditions: application to foliage, application herbicide amount 320 g/ha
In short: as §1

Setaria viridis = test: as above; conditions: application to foliage, application herbicide amount 320 g/ha
In short: as §1

Stellaria media = test: as above; conditions: application to foliage, application herbicide amount 320 g/ha
In short: as §1

Veronica persica = test: as above; conditions: application to foliage, application herbicide amount 320 g/ha
In short: as §1

[3] = tested on: Beta vulgaris ssp. vulgaris; test: Test Example 4: effect on crop by application to foliage (diluvial soil, plastic box); conditions: application to foliage, application herbicide amount 320 g/ha
In short: as §1

Brassica campestris L. = test: as above; conditions: application to foliage, application herbicide amount 320 g/ha
In short: as §1

Glycine max = test: as above; conditions: application to foliage, application herbicide amount 320 g/ha
In short: as §1

Triticum aestivum = test: as above; conditions: application to foliage, application herbicide amount 320 g/ha
In short: as §1

Zea mays = test: as above; conditions: application to foliage, application herbicide amount 320 g/ha
In short: as §1

[4] = tested on: directly sowed Oryza sativa; test: as above; conditions: application to foliage, application herbicide amount 320 g/ha
In short: as §1

Row | SMILES | a: transplanted Oryza sativa (effect on crop grade) [1] | M: herbicidal effect on Abutilon theophrasti (Abutilon theophrasti) | J: herbicidal effect on Alopecurus myosuroides (Alopecurus myosuroides) | N: herbicidal effect on Amaranthus retroflexus (Amaranthus retroflexus) | L: herbicidal effect on Apera spica-venti. (Apera spica-venti.) | I: herbicidal effect on Avena fatua (Avena fatua) | O: herbicidal effect on Chenopodium album (Chenopodium album) | F: herbicidal effect on Digitaria ciliaris (Digitaria ciliaris) | H: herbicidal effect on Echinochloa crus-galli var. crus-galli [2] | Q: herbicidal effect on Galium spurium (Galium spurium) | K: herbicidal effect on Lolium multiflorum Lam. (Lolium multiflorum Lam.) | G: herbicidal effect on Setaria viridis (Setaria viridis) | P: herbicidal effect on Stellaria media (Stellaria media) | R: herbicidal effect on Veronica persica (Veronica persica) | f: effect on crop, Beta vulgaris ssp. vulgaris [3] | g: effect on crop, Brassica campestris L. (Brassica campestris L.) | d: effect on crop, Glycine max (Glycine max) | e: effect on crop, Triticum aestivum (Triticum aestivum) | c: effect on crop, Zea mays (Zea mays) | b: effect on crop, directly sowed Oryza sativa [4]
1 | COCCOCc1nnc2c(C(=O)Nc3nnnn3C)ccc(C(F)(F)F)n12 [2-014] | 4 (Herbicidal ratio of 70% or more and less than 90%) | 5 (Herbicidal ratio of 90% or more (almost completely withered)) | 4 (Herbicidal ratio of 70% or more and less than 90%) | 5 (Herbicidal ratio of 90% or more (almost completely withered)) | 4 (Herbicidal ratio of 70% or more and less than 90%) | 4 (Herbicidal ratio of 70% or more and less than 90%) | 5 (Herbicidal ratio of 90% or more (almost completely withered)) | 5 (Herbicidal ratio of 90% or more (almost completely withered)) | 5 (Herbicidal ratio of 90% or more (almost completely withered)) | 4 (Herbicidal ratio of 70% or more and less than 90%) | 4 (Herbicidal ratio of 70% or more and less than 90%) | 5 (Herbicidal ratio of 90% or more (almost completely withered)) | 5 (Herbicidal ratio of 90% or more (almost completely withered)) | 5 (Herbicidal ratio of 90% or more (almost completely withered)) | 5 (Herbicidal ratio of 90% or more (almost completely withered)) | 4 (Herbicidal ratio of 70% or more and less than 90%) | 4 (Herbicidal ratio of 70% or more and less than 90%) | 4 (Herbicidal ratio of 70% or more and less than 90%) | 3 (Herbicidal ratio of 40% or more and less than 70%) | 5 (Herbicidal ratio of 90% or more (almost completely withered))
2 | Cn1nnnc1NC(=O)c1ccc(C(F)(F)F)n2c(COCC(F)(F)F)nnc12 [2-015] | 1 (Herbicidal ratio of 5% or more and less than 20%) | 5 (Herbicidal ratio of 90% or more (almost completely withered)) | 2 (Herbicidal ratio of 20% or more and less than 40%) | 5 (Herbicidal ratio of 90% or more (almost completely withered)) | 2 (Herbicidal ratio of 20% or more and less than 40%) | 2 (Herbicidal ratio of 20% or more and less than 40%) | 5 (Herbicidal ratio of 90% or more (almost completely withered)) | 5 (Herbicidal ratio of 90% or more (almost completely withered)) | 5 (Herbicidal ratio of 90% or more (almost completely withered)) | 3 (Herbicidal ratio of 40% or more and less than 70%) | 2 (Herbicidal ratio of 20% or more and less than 40%) | 4 (Herbicidal ratio of 70% or more and less than 90%) | 4 (Herbicidal ratio of 70% or more and less than 90%) | 3 (Herbicidal ratio of 40% or more and less than 70%) | 4 (Herbicidal ratio of 70% or more and less than 90%) | 3 (Herbicidal ratio of 40% or more and less than 70%) | 2 (Herbicidal ratio of 20% or more and less than 40%) | 2 (Herbicidal ratio of 20% or more and less than 40%) | 2 (Herbicidal ratio of 20% or more and less than 40%) | 4 (Herbicidal ratio of 70% or more and less than 90%)
3 | CCC(C)c1nnc2c(C(=O)Nc3nnnn3C)ccc(C(F)(F)F)n12 (centres unmarked) [2-016] | 4 (Herbicidal ratio of 70% or more and less than 90%) | 5 (Herbicidal ratio of 90% or more (almost completely withered)) | 4 (Herbicidal ratio of 70% or more and less than 90%) | 5 (Herbicidal ratio of 90% or more (almost completely withered)) | 4 (Herbicidal ratio of 70% or more and less than 90%) | 4 (Herbicidal ratio of 70% or more and less than 90%) | 5 (Herbicidal ratio of 90% or more (almost completely withered)) | 5 (Herbicidal ratio of 90% or more (almost completely withered)) | 5 (Herbicidal ratio of 90% or more (almost completely withered)) | 3 (Herbicidal ratio of 40% or more and less than 70%) | 4 (Herbicidal ratio of 70% or more and less than 90%) | 5 (Herbicidal ratio of 90% or more (almost completely withered)) | 5 (Herbicidal ratio of 90% or more (almost completely withered)) | 5 (Herbicidal ratio of 90% or more (almost completely withered)) | 5 (Herbicidal ratio of 90% or more (almost completely withered)) | 4 (Herbicidal ratio of 70% or more and less than 90%) | 4 (Herbicidal ratio of 70% or more and less than 90%) | 4 (Herbicidal ratio of 70% or more and less than 90%) | 1 (Herbicidal ratio of 5% or more and less than 20%) | 5 (Herbicidal ratio of 90% or more (almost completely withered))
4 | Cc1cc(-c2nnc3c(C(=O)Nc4nnnn4C)ccc(C(F)(F)F)n23)no1 [2-017] | 4 (Herbicidal ratio of 70% or more and less than 90%) | 5 (Herbicidal ratio of 90% or more (almost completely withered)) | 3 (Herbicidal ratio of 40% or more and less than 70%) | 5 (Herbicidal ratio of 90% or more (almost completely withered)) | 4 (Herbicidal ratio of 70% or more and less than 90%) | 4 (Herbicidal ratio of 70% or more and less than 90%) | 5 (Herbicidal ratio of 90% or more (almost completely withered)) | 5 (Herbicidal ratio of 90% or more (almost completely withered)) | 5 (Herbicidal ratio of 90% or more (almost completely withered)) | 1 (Herbicidal ratio of 5% or more and less than 20%) | 2 (Herbicidal ratio of 20% or more and less than 40%) | 5 (Herbicidal ratio of 90% or more (almost completely withered)) | 5 (Herbicidal ratio of 90% or more (almost completely withered)) | 5 (Herbicidal ratio of 90% or more (almost completely withered)) | 5 (Herbicidal ratio of 90% or more (almost completely withered)) | 4 (Herbicidal ratio of 70% or more and less than 90%) | 4 (Herbicidal ratio of 70% or more and less than 90%) | 3 (Herbicidal ratio of 40% or more and less than 70%) | 1 (Herbicidal ratio of 5% or more and less than 20%) | 5 (Herbicidal ratio of 90% or more (almost completely withered))
